Source: article PMC12621043, “Un-LOK-ing a New Approach for Conformational Selective Targeting of STK10 (LOK)” (ACS Medicinal Chemistry Letters, 2025)
pEC50: −log10 of the molar value.

Columns and labels:
[1] = molecular target: T1, STK3 (STK3A) (Homo sapiens, UniProt Q13188); experiment: DSF Tm panel; type: binding; settings: 10 μM compound
T1 construct: purchased in-house DSF kinase panel (SGC-style construct names; the trailing letter is the construct ID)
T1 sequence (Q13188 16-313): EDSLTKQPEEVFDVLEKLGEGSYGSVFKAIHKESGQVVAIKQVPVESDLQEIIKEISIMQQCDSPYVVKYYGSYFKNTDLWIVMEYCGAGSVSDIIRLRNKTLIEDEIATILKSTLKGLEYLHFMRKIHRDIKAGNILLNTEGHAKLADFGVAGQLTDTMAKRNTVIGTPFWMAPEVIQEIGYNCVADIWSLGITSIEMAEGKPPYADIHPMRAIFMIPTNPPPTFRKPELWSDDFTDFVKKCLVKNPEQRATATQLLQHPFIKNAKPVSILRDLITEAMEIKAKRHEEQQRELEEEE

[2] = molecular target: T2, FGFR3A (Homo sapiens, UniProt P22607); experiment: DSF Tm panel; type: binding; settings: 10 μM compound
T2 construct: purchased in-house DSF kinase panel (SGC-style construct names; the trailing letter is the construct ID)
T2 sequence (P22607 472-761): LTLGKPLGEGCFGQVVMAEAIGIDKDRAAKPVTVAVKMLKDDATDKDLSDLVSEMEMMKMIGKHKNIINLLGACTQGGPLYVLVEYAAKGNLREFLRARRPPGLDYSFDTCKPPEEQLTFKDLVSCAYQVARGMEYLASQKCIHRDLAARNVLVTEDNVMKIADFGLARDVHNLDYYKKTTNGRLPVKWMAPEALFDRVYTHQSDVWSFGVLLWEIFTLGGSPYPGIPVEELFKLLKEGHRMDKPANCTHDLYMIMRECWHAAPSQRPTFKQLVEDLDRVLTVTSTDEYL

[3] = molecular target: T3, MELKA (Homo sapiens, UniProt Q14680); experiment: DSF Tm panel; type: binding; settings: 10 μM compound
T3 construct: purchased in-house DSF kinase panel (SGC-style construct names; the trailing letter is the construct ID)
T3 sequence (Q14680 1-340): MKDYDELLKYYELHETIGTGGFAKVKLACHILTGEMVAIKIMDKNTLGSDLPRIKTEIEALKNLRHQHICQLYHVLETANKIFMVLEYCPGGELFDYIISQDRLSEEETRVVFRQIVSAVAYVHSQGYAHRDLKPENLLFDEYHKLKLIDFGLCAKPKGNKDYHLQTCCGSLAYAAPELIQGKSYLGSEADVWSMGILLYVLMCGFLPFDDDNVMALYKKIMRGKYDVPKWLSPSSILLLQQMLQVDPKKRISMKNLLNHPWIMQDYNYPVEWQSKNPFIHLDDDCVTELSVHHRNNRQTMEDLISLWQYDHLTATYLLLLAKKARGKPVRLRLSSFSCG

[4] = tested on: RPS6KA1A; experiment: DSF Tm panel; type: binding; settings: 10 μM compound
[5] = molecular target: T4, MAP2K6A (Homo sapiens, UniProt P52564); experiment: DSF Tm panel; type: binding; settings: 10 μM compound
T4 construct: purchased in-house DSF kinase panel (SGC-style construct names; the trailing letter is the construct ID)
T4 sequence (P52564 53-314): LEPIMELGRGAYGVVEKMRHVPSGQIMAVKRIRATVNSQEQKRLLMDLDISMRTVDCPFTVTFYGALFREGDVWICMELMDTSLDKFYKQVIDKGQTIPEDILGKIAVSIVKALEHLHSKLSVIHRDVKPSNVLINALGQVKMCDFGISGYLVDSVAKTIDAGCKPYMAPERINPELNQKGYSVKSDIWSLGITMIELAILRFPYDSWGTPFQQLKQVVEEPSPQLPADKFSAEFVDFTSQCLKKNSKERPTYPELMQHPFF

[6] = molecular target: T5, ABL1 (ABL1A) (Homo sapiens, UniProt P00519); experiment: DSF Tm panel; type: binding; settings: 10 μM compound
T5 construct: purchased in-house DSF kinase panel (SGC-style construct names; the trailing letter is the construct ID)
T5 sequence (P00519 229-512): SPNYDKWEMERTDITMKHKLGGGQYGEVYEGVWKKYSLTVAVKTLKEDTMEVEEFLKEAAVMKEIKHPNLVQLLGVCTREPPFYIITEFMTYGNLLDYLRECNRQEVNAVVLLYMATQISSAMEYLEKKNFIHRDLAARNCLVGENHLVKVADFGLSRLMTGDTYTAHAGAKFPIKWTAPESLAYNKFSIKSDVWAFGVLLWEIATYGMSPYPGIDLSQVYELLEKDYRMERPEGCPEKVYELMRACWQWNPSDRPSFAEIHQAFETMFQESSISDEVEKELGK

[7] = molecular target: T6, PIM1 (PIM1A) (Homo sapiens, UniProt P11309); experiment: DSF Tm panel; type: binding; settings: 10 μM compound
T6 construct: purchased in-house DSF kinase panel (SGC-style construct names; the trailing letter is the construct ID)
T6 sequence (P11309 whole entry): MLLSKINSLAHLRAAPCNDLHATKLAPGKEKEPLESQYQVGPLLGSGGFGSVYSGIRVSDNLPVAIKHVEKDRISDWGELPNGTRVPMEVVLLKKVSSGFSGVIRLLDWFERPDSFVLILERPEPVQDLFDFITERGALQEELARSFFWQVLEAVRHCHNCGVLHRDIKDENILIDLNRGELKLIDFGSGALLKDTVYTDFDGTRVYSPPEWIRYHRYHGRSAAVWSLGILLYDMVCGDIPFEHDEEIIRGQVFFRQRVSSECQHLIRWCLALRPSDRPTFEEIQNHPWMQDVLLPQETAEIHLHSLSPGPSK

[8] = molecular target: T7, PKMYT1A (Homo sapiens, UniProt Q99640); experiment: DSF Tm panel; type: binding; settings: 10 μM compound
T7 construct: purchased in-house DSF kinase panel (SGC-style construct names; the trailing letter is the construct ID)
T7 sequence (Q99640 75-362): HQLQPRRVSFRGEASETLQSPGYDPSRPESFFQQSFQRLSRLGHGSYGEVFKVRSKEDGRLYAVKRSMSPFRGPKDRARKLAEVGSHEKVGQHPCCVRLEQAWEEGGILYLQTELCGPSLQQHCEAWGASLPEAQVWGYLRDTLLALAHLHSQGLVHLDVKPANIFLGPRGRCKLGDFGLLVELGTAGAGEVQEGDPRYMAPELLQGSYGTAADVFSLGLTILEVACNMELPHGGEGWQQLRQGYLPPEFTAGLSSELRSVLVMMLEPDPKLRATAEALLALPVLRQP

[9] = molecular target: T8, MAPK1A (Homo sapiens, UniProt P28482); experiment: DSF Tm panel; type: binding; settings: 10 μM compound
T8 construct: purchased in-house DSF kinase panel (SGC-style construct names; the trailing letter is the construct ID)
T8 sequence (P28482 whole entry): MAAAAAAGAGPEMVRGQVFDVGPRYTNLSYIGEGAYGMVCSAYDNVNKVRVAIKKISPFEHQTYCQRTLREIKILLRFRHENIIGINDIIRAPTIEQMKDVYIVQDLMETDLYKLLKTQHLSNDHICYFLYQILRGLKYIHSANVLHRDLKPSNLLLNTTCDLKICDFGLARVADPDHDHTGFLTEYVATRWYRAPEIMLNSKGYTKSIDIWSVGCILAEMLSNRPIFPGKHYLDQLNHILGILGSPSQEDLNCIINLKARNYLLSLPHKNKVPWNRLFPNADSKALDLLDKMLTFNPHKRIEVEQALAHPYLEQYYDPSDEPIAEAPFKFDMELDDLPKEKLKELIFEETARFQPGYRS

[10] = tested on: CDC42BPAA; experiment: DSF Tm panel; type: binding; settings: 10 μM compound
[11] = molecular target: T9, CAMK1GA (Homo sapiens, UniProt Q96NX5); experiment: DSF Tm panel; type: binding; settings: 10 μM compound
T9 construct: purchased in-house DSF kinase panel (SGC-style construct names; the trailing letter is the construct ID)
T9 sequence (Q96NX5 18-316): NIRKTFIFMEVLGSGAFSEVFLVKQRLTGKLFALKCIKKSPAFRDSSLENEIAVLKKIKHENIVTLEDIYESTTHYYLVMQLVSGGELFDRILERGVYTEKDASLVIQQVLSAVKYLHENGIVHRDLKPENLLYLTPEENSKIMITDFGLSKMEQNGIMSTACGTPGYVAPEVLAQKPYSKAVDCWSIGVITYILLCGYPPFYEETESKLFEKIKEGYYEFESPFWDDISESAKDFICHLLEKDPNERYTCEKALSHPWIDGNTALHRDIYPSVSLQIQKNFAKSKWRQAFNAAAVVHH

[12] = molecular target: T10, VRK1A (Homo sapiens, UniProt Q99986); experiment: DSF Tm panel; type: binding; settings: 10 μM compound
T10 construct: purchased in-house DSF kinase panel (SGC-style construct names; the trailing letter is the construct ID)
T10 sequence (Q99986 1-396): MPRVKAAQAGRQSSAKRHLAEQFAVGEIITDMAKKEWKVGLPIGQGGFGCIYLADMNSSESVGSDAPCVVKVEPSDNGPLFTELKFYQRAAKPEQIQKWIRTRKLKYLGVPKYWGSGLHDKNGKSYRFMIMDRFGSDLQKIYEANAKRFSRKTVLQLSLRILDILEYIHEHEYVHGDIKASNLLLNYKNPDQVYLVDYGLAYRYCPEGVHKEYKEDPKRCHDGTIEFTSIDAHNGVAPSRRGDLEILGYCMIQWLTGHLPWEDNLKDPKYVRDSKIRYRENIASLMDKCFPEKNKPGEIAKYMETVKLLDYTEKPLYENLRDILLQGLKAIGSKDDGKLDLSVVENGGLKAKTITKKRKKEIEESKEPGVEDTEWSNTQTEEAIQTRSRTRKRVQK

[13] = molecular target: SLK (Homo sapiens, UniProt Q9H2G2); experiment: NanoBRET target engagement assay; type: cell-based; set-up: has a greater impact on the full-length protein than on the kinase domains; host or cells: HEK293T (ATCC CRL-3216); settings: HEK293T cells
Sequence of SLK (Q9H2G2 whole entry, the tested form may be a part): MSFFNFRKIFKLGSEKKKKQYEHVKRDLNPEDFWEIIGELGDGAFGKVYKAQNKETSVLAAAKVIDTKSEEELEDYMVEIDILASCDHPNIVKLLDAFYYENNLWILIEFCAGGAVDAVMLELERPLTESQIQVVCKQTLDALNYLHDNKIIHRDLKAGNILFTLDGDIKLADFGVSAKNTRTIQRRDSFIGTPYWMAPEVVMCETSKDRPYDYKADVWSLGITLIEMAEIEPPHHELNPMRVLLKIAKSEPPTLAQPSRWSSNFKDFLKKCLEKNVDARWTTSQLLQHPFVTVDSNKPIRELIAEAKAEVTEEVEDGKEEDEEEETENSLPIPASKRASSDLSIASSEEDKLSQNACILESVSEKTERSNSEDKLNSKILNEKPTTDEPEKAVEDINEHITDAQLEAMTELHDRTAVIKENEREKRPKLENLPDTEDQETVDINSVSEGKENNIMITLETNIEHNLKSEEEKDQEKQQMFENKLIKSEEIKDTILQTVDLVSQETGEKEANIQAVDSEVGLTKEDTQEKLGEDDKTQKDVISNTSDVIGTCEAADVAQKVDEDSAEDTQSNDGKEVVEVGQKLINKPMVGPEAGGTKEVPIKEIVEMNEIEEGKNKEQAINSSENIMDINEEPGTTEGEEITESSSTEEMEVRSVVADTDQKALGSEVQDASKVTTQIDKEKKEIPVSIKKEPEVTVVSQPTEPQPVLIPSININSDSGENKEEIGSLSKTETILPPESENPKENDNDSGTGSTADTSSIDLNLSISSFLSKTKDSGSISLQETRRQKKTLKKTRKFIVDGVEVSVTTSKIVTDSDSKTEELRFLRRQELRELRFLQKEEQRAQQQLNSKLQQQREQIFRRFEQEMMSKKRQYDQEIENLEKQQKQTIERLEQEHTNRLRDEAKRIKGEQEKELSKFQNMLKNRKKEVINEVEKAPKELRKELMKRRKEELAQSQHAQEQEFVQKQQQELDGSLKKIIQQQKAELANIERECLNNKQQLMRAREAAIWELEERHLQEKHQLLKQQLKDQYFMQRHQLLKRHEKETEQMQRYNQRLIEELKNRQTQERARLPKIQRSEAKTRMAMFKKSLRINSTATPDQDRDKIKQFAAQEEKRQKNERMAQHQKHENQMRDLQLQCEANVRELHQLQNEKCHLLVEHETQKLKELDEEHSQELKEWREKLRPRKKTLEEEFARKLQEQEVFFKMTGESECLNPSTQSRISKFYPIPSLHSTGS

ΔTm at 10 µM [1] [°C] | ΔTm at 10 µM [2] [°C] | ΔTm at 10 µM [3] [°C] | ΔTm at 10 µM [5] [°C] | ΔTm at 10 µM [6] [°C] | ΔTm at 10 µM [7] [°C] | ΔTm at 10 µM [8] [°C] | ΔTm at 10 µM [9] [°C] | ΔTm at 10 µM [11] [°C] | ΔTm at 10 µM [12] [°C] | pEC50 [13] | SMILES | ΔTm RPS6KA1A [4] | ΔTm CDC42BPAA [10]
8 | 1.4 | 0.9 | 1.1 | 2.2 | 3 | 1.6 | 0.8 | 2.7 | 0.4 | < 4.30 | O=C(NCc1ccc(Cl)cc1Cl)Nc1ccc2cc1OCCOCCNc1ccn3ncc-2c3n1 [compound 20] | 0,9 °C | 0,7 °C
3.3 | 3 | 2.2 | 0.4 | 1.4 | 2.4 | 0.8 | 0.3 | 0 | -0.1 | < 4.30 | CN1CCN(C(=O)Nc2ccc3cc2OCCOCCNc2ccn4ncc-3c4n2)CC1 [compound 35] | 0,7 °C | -0,6 °C
8 | 3.6 | 1.5 | 1.2 | 1.8 | 3.2 | 1.5 | 0.7 | 0.8 | 0.3 | < 4.30 | O=C(NCc1cccc(Cl)c1)Nc1ccc2cc1OCCOCCNc1ccn3ncc-2c3n1 [compound 18] | 0,7 °C | 0,0 °C
9.1 | 2.5 | 1.1 | 0.4 | 1.7 | 2.3 | 2.1 | 0.8 | 2 | 0.8 | < 4.30 | Cc1cc(Cl)ccc1CNC(=O)Nc1ccc2cc1OCCOCCNc1ccn3ncc-2c3n1 [compound 23] | 0,8 °C | 0,6 °C
